What was measured:
[1] = biological target: T1, Beta-2 adrenergic receptor (Homo sapiens, UniProt P07550); test: Displacement of [3H]-DHA from beta-2 AR (unknown origin) overexpressed in HEK293 cell membrane assessed as dissociation constant (K) incubated for 90 mins by liquid scintillation analysis
[2] = biological target: T1, Beta-2 adrenergic receptor; test: Antagonist activity at beta-2 AR (unknown origin) overexpressed in HEK293 cell membrane assessed as inhibition of ISO-induced cAMP production at EC80 preincubated for 15 mins followed by agonist addition measured after 30 mins by TR-FRET assay
[3] = biological target: T1, Beta-2 adrenergic receptor; test: Displacement of [3H]-DHA from beta-2 AR (unknown origin) overexpressed in HEK293 cell membrane assessed as inhibition constant incubated for 90 mins by liquid scintillation analysis

T1 sequence (P07550 whole entry): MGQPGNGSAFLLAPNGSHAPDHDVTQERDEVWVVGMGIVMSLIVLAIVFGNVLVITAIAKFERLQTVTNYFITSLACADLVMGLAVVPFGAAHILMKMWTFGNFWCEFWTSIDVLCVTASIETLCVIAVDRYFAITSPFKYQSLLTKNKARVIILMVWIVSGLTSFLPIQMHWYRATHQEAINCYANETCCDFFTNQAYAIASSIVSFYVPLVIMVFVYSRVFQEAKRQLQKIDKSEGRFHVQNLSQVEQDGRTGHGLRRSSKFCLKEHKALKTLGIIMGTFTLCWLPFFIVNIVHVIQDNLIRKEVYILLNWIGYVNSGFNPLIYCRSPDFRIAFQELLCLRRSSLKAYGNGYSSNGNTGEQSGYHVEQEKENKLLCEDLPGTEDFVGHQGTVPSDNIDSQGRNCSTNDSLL

SMILES | Kd [1] | IC50 [2] | Ki [3]
CC(C)NC[C@H](O)COc1ccc(CCCCN=[N+]=[N-])cc1 | 0.589 µM | 4.79 µM | 0.389 µM
CC(C)NC[C@H](O)COc1ccc(CCCN=[N+]=[N-])cc1 |  | 3.98 µM | 

From ChEMBL document CHEMBL5523731, “Bitopic Ligands Support the Presence of a Metastable Binding Site at the β2 Adrenergic Receptor” (J Med Chem, 2024)
